Patent publication US20100298141A1, “SUBSTITUTED PYRIDINE N-OXIDE HERBICIDES” (E. I. DU PONT DE NEMOURS AND COMPANY, priority 2007, published 2010)

Assays:
[1] = tested on: rice; assay: Test C flooded paddy test; assay type: in vivo, Oryza sativa; details: Flood
Summary of the method: (§1)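 Ratings were visual and made relative to untreated controls after 13 to 15 greenhouse days.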

[2] = tested on: corn; assay: Test A pre-/postemergence greenhouse test; assay type: in vivo, Zea mays; details: for Plant response rating, Corn: 0 to 100 scale where 0 is no effect and 100 is complete control; for Corn plant response rating: 0 to 100 scale
Summary of the method: (§2)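 Greenhouse herbicide screen, pre- and postemergence in parallel. Soil: loam plus sand. Formulation: non-phytotoxic solvent mix with surfactant. Postemergence stage: one to two leaves, 2–10 cm height. Evaluation: visual injury, compared with untreated controls, about 10 days after treatment.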

[3] = tested on: wheat; assay: Test A pre-/postemergence greenhouse test; assay type: in vivo, Triticum aestivum; details: for Plant response rating, Wheat: 0 to 100 scale where 0 is no effect and 100 is complete control; for Wheat plant response rating: 0 to 100 scale
Summary of the method: as §2

[4] = tested on: giant foxtail; assay: Test A pre-/postemergence greenhouse test; assay type: in vivo, Setaria faberi; details: for Plant response rating, Foxtail, Giant: 0 to 100 scale where 0 is no effect and 100 is complete control; for Foxtail, Giant plant response rating: 0 to 100 scale
Summary of the method: as §2

[5] = tested on: velvetleaf; assay: Test A pre-/postemergence greenhouse test; assay type: in vivo, Abutilon theophrasti; details: for Plant response rating, Velvetleaf: 0 to 100 scale where 0 is no effect and 100 is complete control; for Velvetleaf plant response rating: 0 to 100 scale
Summary of the method: as §2

[6] = tested on: wild oat; assay: Test C pre-/postemergence test; assay type: in vivo, Avena fatua
Summary of the method: (§3)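 Compounds in a non-phytotoxic solvent with surfactant applied preemergence to seeded pots and, at the same time, postemergence to plants 2–18 cm tall (1- to 4-leaf stage). Paddy tests: pots flooded to 3 cm, compound applied into the water, depth held throughout.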

[7] = tested on: johnsongrass; assay: Test C pre-/postemergence test; assay type: in vivo, Sorghum halepense
Summary of the method: as §3

[8] = tested on: lambsquarters; assay: Test C pre-/postemergence test; assay type: in vivo, Chenopodium album; details: Postemergence; for Plant response rating, Lambsquarters: scale 0 to 100, 0 no effect, 100 complete control
Text: Seeds of plant species selected from blackgrass (Alopecurus myosuroides), downy brome (Bromus tectorum), green foxtail (Setaria viridis), Italian ryegrass (Lolium multiflorum), wheat (Triticum aestivum), wild oat (Avena fatua), catchweed bedstraw (Galium aparine), Russian thistle (Salsola kali), […] (Cynodon dactylon), Surinam grass (Brachiaria decumbens), cocklebur (Xanthium strumarium), corn (Zea mays), crabgrass (Digitaria sanguinalis), woolly cupgrass (Eriochloa villosa), giant foxtail (Setaria faberii), Goosegrass (Eleusin indica), johnsongrass (Sorghum halepense), kochia (Kochia scoparia), lambsquarters (Chenopodium album), morningglory (Ipomoea coccinea), eastern black nightshade (Solanum ptycanthum), yellow nutsedge (Cyperus esculentus), pigweed (Amaranthus retroflexus), common ragweed (Ambrosia elation), soybean (Glycine max), common (oilseed) sunflower (Helianthus annuus), and velvetleaf (Abutilon theophrasti) were planted and treated preemergence with test chemicals formulated in a non-phytotoxic solvent mixture which included a surfactant. At the same time, plants selected from these crop and weed species and also winter barley (Hordeum vulgare), canarygrass (Phalaris minor), and chickweed (Stellaria media) were treated with postemergence applications of some of the test chemicals formulated in the same manner. Plants ranged in height from 2 to 18 cm (1- to 4-leaf stage) for postemergence treatments. […] At time of treatment, test pots were flooded to 3 cm above the soil surface, treated by application of test compounds directly to the paddy water, and then maintained at that water depth for the duration of the test. […] A dash (-) response means no test result.

[9] = tested on: Surinam grass; assay: Test C pre-/postemergence test; assay type: in vivo, Brachiaria decumbens
Summary of the method: as §3

[10] = tested on: Goosegrass; assay: Test C pre-/postemergence test; assay type: in vivo, Eleusin indica
Summary of the method: as §3

[11] = tested on: giant foxtail; assay: Test C pre-/postemergence test; assay type: in vivo, Setaria faberii; details: for Foxtail, Giant plant response rating: preemergence, scale 0 (no effect) to 100 (complete control)
Summary of the method: as §3

[12] = tested on: duck salad; assay: Test C flooded paddy test; assay type: in vivo, Heteranthera limosa; details: Flood
Summary of the method: as §1

[13] = tested on: velvetleaf; assay: Test C pre-/postemergence test; assay type: in vivo, Abutilon theophrasti
Summary of the method: as §3

[14] = tested on: barnyardgrass; assay: Test C flooded paddy test; assay type: in vivo, Echinochloa crus-galli; details: Flood
Summary of the method: as §1

[15] = tested on: bermudagrass; assay: Test C pre-/postemergence test; assay type: in vivo, Cynodon dactylon
Summary of the method: as §3

[16] = tested on: redroot pigweed; assay: Test A pre-/postemergence greenhouse test; assay type: in vivo, Amaranthus retroflexus; details: for Plant response rating, Pigweed: 0 to 100 scale where 0 is no effect and 100 is complete control; for Pigweed plant response rating: 0 to 100 scale
Summary of the method: as §2

[17] = tested on: common ragweed; assay: Test C pre-/postemergence test; assay type: in vivo, Ambrosia elation
Summary of the method: as §3

[18] = 62 g ai/ha, scale 0 to 100 (0 no effect, 100 complete control)
[19] = 250 g ai/ha, scale 0 to 100, 0 no effect, 100 complete control, 13 to 15 days
[20] = Postemergence, 500 g ai/ha, 0 is no effect, 100 is complete control
[21] = Preemergence, 125 g ai/ha, 0 no effect, 100 complete control
[22] = 62 g ai/ha, Preemergence, scale 0 to 100
[23] = 125 g ai/ha, preemergence, scale 0 (no effect) to 100 (complete control)
[24] = Postemergence, 62 g ai/ha, scale 0 to 100, 0 no effect, 100 complete control
[25] = Postemergence, 125 g ai/ha, scale 0 to 100, 0 no effect, 100 complete control
[26] = Postemergence, 250 g ai/ha, scale 0 to 100, 0 no effect, 100 complete control
[27] = Preemergence, 31 g ai/ha, scale 0 to 100 (0 no effect, 100 complete control)
[28] = preemergence, 250 g ai/ha, scale 0 (no effect) to 100 (complete control)

## CCn1nc(C(F)(F)F)c(C[S+]([O-])c2cccc[n+]2[O-])c1OCC(F)(F)F (racemic) [Compound 65]
[1]; [18]
  Plant response rating, Rice: 0
[1]; [19]
  Plant response rating, Rice: 45
[2]; Postemergence, 125 g ai/ha
  Plant response rating, Corn: 70
[2]; [20]
  Corn plant response rating: 80
[2]; [21]
  Corn plant response rating: 40
[2]; Preemergence, 500 g ai/ha
  Plant response rating, Corn: 80
[3]; Postemergence, 125 g ai/ha
  Plant response rating, Wheat: 60
[3]; [20]
  Wheat plant response rating: 70
[3]; [21]
  Wheat plant response rating: 80
[3]; Preemergence, 500 g ai/ha
  Plant response rating, Wheat: 100
[4]; Postemergence, 125 g ai/ha
  Plant response rating, Foxtail, Giant: 90
[4]; [20]
  Foxtail, Giant plant response rating: 100
[4]; [21]
  Foxtail, Giant plant response rating: 100
[4]; Preemergence, 500 g ai/ha
  Plant response rating, Foxtail, Giant: 100
[5]; Postemergence, 125 g ai/ha
  Plant response rating, Velvetleaf: 80
[5]; [20]
  Velvetleaf plant response rating: 90
[5]; [21]
  Velvetleaf plant response rating: 100
[5]; Preemergence, 500 g ai/ha
  Plant response rating, Velvetleaf: 100
[6]; [22]
  Oat, Wild plant response rating: 98
[6]; [23]
  Oat, Wild plant response rating: 98
[6]; Postemergence, 31 g ai/ha
  Plant response rating (0 to 100), Oat, Wild: 0
[6]; [24]
  Plant response rating, Oat, Wild: 40
[6]; [25]
  Plant response rating, Oat, Wild: 80
[6]; [26]
  Plant response rating, Oat, Wild: 85
[6]; [27]
  Plant response rating, Oat, Wild: 85
[6]; [28]
  Oat, Wild plant response rating: 100
[7]; [22]
  Johnsongrass plant response rating: 100
[7]; [23]
  Johnsongrass plant response rating: 100
[7]; Postemergence, 31 g ai/ha
  Plant response rating (0 to 100), Johnsongrass: 0
[7]; [24]
  Plant response rating, Johnsongrass: 0
[7]; [25]
  Plant response rating, Johnsongrass: 0
[7]; [26]
  Plant response rating, Johnsongrass: 0
[7]; [27]
  Plant response rating, Johnsongrass: 98
[7]; [28]
  Johnsongrass plant response rating: 100
[8]; 31 g ai/ha
  Plant response rating (0 to 100), Lambsquarters: 0
[8]; 62 g ai/ha
  Plant response rating, Lambsquarters: 0
[8]; 125 g ai/ha
  Plant response rating, Lambsquarters: 50
[8]; 250 g ai/ha
  Plant response rating, Lambsquarters: 50
[9]; [22]
  Surinam Grass plant response rating: 100
[9]; [23]
  Surinam Grass plant response rating: 100
[9]; Postemergence, 31 g ai/ha
  Plant response rating (0 to 100), Surinam Grass: 0
[9]; Postemergence, 62 g ai/ha
  Plant response rating (0 to 100), Surinam Grass: 0
[9]; [25]
  Plant response rating, Surinam Grass: 0
[9]; [26]
  Plant response rating, Surinam Grass: 25
[9]; [27]
  Plant response rating, Surinam Grass: 80
[9]; [28]
  Surinam Grass plant response rating: 100
[10]; [22]
  Goosegrass plant response rating: 100
[10]; [23]
  Goosegrass plant response rating: 100
[10]; Postemergence, 31 g ai/ha
  Plant response rating (0 to 100), Goosegrass: 0
[10]; [24]
  Plant response rating, Goosegrass: 0
[10]; [25]
  Plant response rating, Goosegrass: 0
[10]; [26]
  Plant response rating, Goosegrass: 70
[10]; [27]
  Plant response rating, Goosegrass: 100
[10]; [28]
  Goosegrass plant response rating: 100
[11]; 125 g ai/ha
  Foxtail, Giant plant response rating: 100
[11]; Postemergence, 31 g ai/ha
  Plant response rating (0 to 100), Foxtail, Giant: 0
[11]; [24]
  Plant response rating, Foxtail, Giant: 0
[11]; [25]
  Plant response rating, Foxtail, Giant: 40
[11]; [26]
  Plant response rating, Foxtail, Giant: 80
[11]; [27]
  Plant response rating, Foxtail, Giant: 98
[11]; 250 g ai/ha
  Foxtail, Giant plant response rating: 100
[12]; [18]
  Plant response rating, Ducksalad: 30
[12]; [19]
  Plant response rating, Ducksalad: 100
[13]; [22]
  Velvetleaf plant response rating: 60
[13]; [23]
  Velvetleaf plant response rating: 100
[13]; Postemergence, 31 g ai/ha
  Plant response rating (0 to 100), Velvetleaf: 0
[13]; Postemergence, 62 g ai/ha
  Plant response rating (0 to 100), Velvetleaf: 0
[13]; [25]
  Plant response rating, Velvetleaf: 30
[13]; [26]
  Plant response rating, Velvetleaf: 40
[13]; [27]
  Plant response rating, Velvetleaf: 55
[13]; [28]
  Velvetleaf plant response rating: 100
[14]; [18]
  Plant response rating, Barnyardgrass: 55
[14]; [19]
  Plant response rating, Barnyardgrass: 85
[15]; 62 g ai/ha, Preemergence, scale 0 to 100 (0 no effect, 100 complete control)
  Bermudagrass plant response rating: 100
[15]; [23]
  Bermudagrass plant response rating: 100
[15]; Postemergence, 31 g ai/ha
  Plant response rating (0 to 100), Bermudagrass: 0
[15]; [24]
  Plant response rating, Bermudagrass: 0
[15]; [25]
  Plant response rating, Bermudagrass: 70
[15]; [26]
  Plant response rating, Bermudagrass: 90
[15]; [27]
  Plant response rating, Bermudagrass: 100
[15]; [28]
  Bermudagrass plant response rating: 100
[16]; Postemergence, 125 g ai/ha
  Plant response rating, Pigweed: 80
[16]; [20]
  Pigweed plant response rating: 90
[16]; [21]
  Pigweed plant response rating: 100
[16]; Preemergence, 500 g ai/ha
  Plant response rating, Pigweed: 100
[17]; [22]
  Ragweed plant response rating: 100
[17]; [23]
  Ragweed plant response rating: 100
[17]; Postemergence, 31 g ai/ha
  Plant response rating (0 to 100), Ragweed: 0
[17]; Postemergence, 62 g ai/ha
  Plant response rating (0 to 100), Ragweed: 0
[17]; [25]
  Plant response rating, Ragweed: 0
[17]; [26]
  Plant response rating, Ragweed: 0
[17]; [27]
  Plant response rating, Ragweed: 100
[17]; [28]
  Ragweed plant response rating: 100
